Data from PubChem BioAssay (NCI).
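GI50 marks 50% less growth. TGI marks complete inhibition of growth.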

Columns and labels:
Assay in all cases: NCI anticancer screen, dose series, 384-well format
BT-549 breast = tested on: BT-549 breast
NCI-H522 lung = tested on: NCI-H522 lung
SN12C renal = tested on: SN12C renal
SNB-19 CNS = tested on: SNB-19 CNS
IGROV1 ovarian = tested on: IGROV1 ovarian
A549 NSCLC = tested on: A549 NSCLC
UO-31 renal = tested on: UO-31 renal
PC-3 prostate = tested on: PC-3 prostate
HCT-15 colon = tested on: HCT-15 colon
EKVX NSCLC = tested on: EKVX NSCLC
MDA-MB-468 breast = tested on: MDA-MB-468 breast
SK-MEL-5 melanoma = tested on: SK-MEL-5 melanoma
786-0 renal = tested on: 786-0 renal
MOLT-4 leukemia = tested on: MOLT-4 leukemia
RXF 393 renal = tested on: RXF 393 renal
HCC-2998 colon = tested on: HCC-2998 colon
HOP-92 NSCLC = tested on: HOP-92 NSCLC
LOX IMVI melanoma = tested on: LOX IMVI melanoma
OVCAR-3 ovarian = tested on: OVCAR-3 ovarian
NCI-H226 lung = tested on: NCI-H226 lung
MDA-MB-435 melanoma = tested on: MDA-MB-435 melanoma
SF-539 CNS = tested on: SF-539 CNS
OVCAR-5 ovarian = tested on: OVCAR-5 ovarian
UACC-257 melanoma = tested on: UACC-257 melanoma
M14 melanoma = tested on: M14 melanoma
K-562 leukemia = tested on: K-562 leukemia
HOP-62 NSCLC = tested on: HOP-62 NSCLC
OVCAR-4 ovarian = tested on: OVCAR-4 ovarian
DU-145 prostate = tested on: DU-145 prostate
OVCAR-8 ovarian = tested on: OVCAR-8 ovarian
SW-620 colon = tested on: SW-620 colon
SK-MEL-28 melanoma = tested on: SK-MEL-28 melanoma
NCI-H322M lung = tested on: NCI-H322M lung
RPMI-8226 leukemia = tested on: RPMI-8226 leukemia
CAKI-1 renal = tested on: CAKI-1 renal
ACHN renal = tested on: ACHN renal
HS 578T breast = tested on: HS 578T breast
MCF7 breast = tested on: MCF7 breast
SNB-75 CNS = tested on: SNB-75 CNS
SR leukemia = tested on: SR leukemia
SF-268 CNS = tested on: SF-268 CNS
NCI-H460 NSCLC = tested on: NCI-H460 NSCLC
TK-10 renal = tested on: TK-10 renal
CCRF-CEM leukemia = tested on: CCRF-CEM leukemia
SF-295 CNS = tested on: SF-295 CNS
COLO 205 colon = tested on: COLO 205 colon
MALME-3M melanoma = tested on: MALME-3M melanoma
MDA-MB-231 breast = tested on: MDA-MB-231 breast
HL-60(TB) leukemia = tested on: HL-60(TB) leukemia
NCI/ADR-RES ovarian = tested on: NCI/ADR-RES ovarian
NCI-H23 lung = tested on: NCI-H23 lung

## COc1cc(OC)c(/C=C/S(=O)(=O)Cc2ccc(OC)c(NCC(=O)O)c2)c(OC)c1
BT-549 breast
  GI50: 48.1 nM
  TGI: 344 nM
NCI-H522 lung
  GI50: 14.4 nM
  TGI: 33 nM
SN12C renal
  GI50: 63.8 nM
  TGI: > 100000 nM
SNB-19 CNS
  GI50: 43.9 nM
  TGI: > 100000 nM
IGROV1 ovarian
  GI50: 60.4 nM
  TGI: > 100000 nM
A549 NSCLC
  GI50: 61.3 nM
  TGI: > 100000 nM
UO-31 renal
  GI50: 86.2 nM
  TGI: > 100000 nM
PC-3 prostate
  GI50: 31.5 nM
  TGI: > 100000 nM
HCT-15 colon
  GI50: 32.3 nM
  TGI: 373 nM
EKVX NSCLC
  GI50: 41.1 nM
  TGI: > 100000 nM
MDA-MB-468 breast
  GI50: 17.5 nM
  TGI: 42.3 nM
SK-MEL-5 melanoma
  GI50: 19.5 nM
  TGI: 45.8 nM
786-0 renal
  GI50: 30.7 nM
  TGI: 607 nM
MOLT-4 leukemia
  GI50: 64.1 nM
  TGI: 187 nM
RXF 393 renal
  GI50: 16.8 nM
  TGI: 49.4 nM
HCC-2998 colon
  GI50: 40.5 nM
  TGI: 264 nM
HOP-92 NSCLC
  GI50: 38.5 nM
  TGI: 4170 nM
LOX IMVI melanoma
  GI50: 45.7 nM
  TGI: 362 nM
OVCAR-3 ovarian
  GI50: 16.8 nM
  TGI: 38.2 nM
NCI-H226 lung
  GI50: 38.3 nM
  TGI: > 100000 nM
MDA-MB-435 melanoma
  GI50: 17.1 nM
  TGI: 36.6 nM
SF-539 CNS
  GI50: 20.8 nM
  TGI: 50.8 nM
OVCAR-5 ovarian
  GI50: 135 nM
  TGI: > 100000 nM
UACC-257 melanoma
  GI50: 17.7 nM
  TGI: 370 nM
M14 melanoma
  GI50: 25.9 nM
  TGI: 82.7 nM
K-562 leukemia
  GI50: 32.4 nM
  TGI: 109 nM
HOP-62 NSCLC
  GI50: 42.6 nM
  TGI: > 100000 nM
OVCAR-4 ovarian
  GI50: 24.6 nM
  TGI: 95.5 nM
DU-145 prostate
  GI50: 177 nM
  TGI: 1040 nM
OVCAR-8 ovarian
  GI50: 30.3 nM
  TGI: 93.8 nM
SW-620 colon
  GI50: 33.8 nM
  TGI: > 100000 nM
SK-MEL-28 melanoma
  GI50: 63.7 nM
  TGI: > 100000 nM
NCI-H322M lung
  GI50: 90.9 nM
  TGI: > 100000 nM
RPMI-8226 leukemia
  GI50: 19 nM
  TGI: 37.5 nM
CAKI-1 renal
  GI50: 46 nM
  TGI: > 100000 nM
ACHN renal
  GI50: 58.9 nM
  TGI: > 100000 nM
HS 578T breast
  GI50: 15.4 nM
  TGI: 34.7 nM
MCF7 breast
  GI50: 47.3 nM
  TGI: 26000 nM
SNB-75 CNS
  GI50: 35.1 nM
  TGI: 211 nM
SR leukemia
  GI50: 16.1 nM
  TGI: 31.6 nM
SF-268 CNS
  GI50: 51 nM
  TGI: 2040 nM
NCI-H460 NSCLC
  GI50: 22.6 nM
  TGI: 59.3 nM
TK-10 renal
  GI50: 50.9 nM
  TGI: > 100000 nM
CCRF-CEM leukemia
  GI50: 49.4 nM
  TGI: 157 nM
SF-295 CNS
  GI50: 23.1 nM
  TGI: 57.6 nM
COLO 205 colon
  GI50: 215 nM
  TGI: 537 nM
MALME-3M melanoma
  GI50: 25.9 nM
  TGI: 92.9 nM
MDA-MB-231 breast
  GI50: 92.9 nM
  TGI: > 100000 nM
HL-60(TB) leukemia
  GI50: 33.6 nM
  TGI: 101 nM
NCI/ADR-RES ovarian
  GI50: 16.4 nM
  TGI: 36.4 nM
NCI-H23 lung
  GI50: 24.9 nM
  TGI: 77.4 nM
